“And” between values parts separate entries of the source, which are not always exact repeats. Equal entries are not always repeated. Where two headings read alike, the source gives them in different places.
What was measured:
[1] = biological target: T1, OCT1 (Homo sapiens, UniProt O15245)
T1 sequence (O15245 1-554): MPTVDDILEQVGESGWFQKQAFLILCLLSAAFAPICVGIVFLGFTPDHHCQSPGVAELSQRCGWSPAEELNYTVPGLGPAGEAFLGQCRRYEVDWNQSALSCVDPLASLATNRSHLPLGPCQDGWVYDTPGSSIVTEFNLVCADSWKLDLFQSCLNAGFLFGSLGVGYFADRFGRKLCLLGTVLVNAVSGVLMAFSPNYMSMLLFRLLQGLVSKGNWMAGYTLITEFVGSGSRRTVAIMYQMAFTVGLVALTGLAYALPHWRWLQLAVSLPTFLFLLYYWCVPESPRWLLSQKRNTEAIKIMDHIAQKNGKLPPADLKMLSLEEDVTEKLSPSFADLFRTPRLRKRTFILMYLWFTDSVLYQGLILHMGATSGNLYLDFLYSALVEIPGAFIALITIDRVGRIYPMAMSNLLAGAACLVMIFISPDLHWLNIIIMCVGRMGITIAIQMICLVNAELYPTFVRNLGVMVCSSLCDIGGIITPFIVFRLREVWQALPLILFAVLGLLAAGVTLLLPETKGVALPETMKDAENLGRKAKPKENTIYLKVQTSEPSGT
Protocol: (§2) Ka was calculated manually based on available pharmacokinetic parameters. Qh was set to 97 L/h and Fa was assumed as 1.

[2] = biological target: T2, human MATE1 (hMATE1) (Homo sapiens, UniProt Q96FL8); experiment: Uptake of the extended cocktail by HEK293 cells overexpressing hMATE1; assay type: in vitro ADME; settings: Fig. 6, uptake 1 minute after NH4Cl preincubation
T2 sequence (Q96FL8 1-570): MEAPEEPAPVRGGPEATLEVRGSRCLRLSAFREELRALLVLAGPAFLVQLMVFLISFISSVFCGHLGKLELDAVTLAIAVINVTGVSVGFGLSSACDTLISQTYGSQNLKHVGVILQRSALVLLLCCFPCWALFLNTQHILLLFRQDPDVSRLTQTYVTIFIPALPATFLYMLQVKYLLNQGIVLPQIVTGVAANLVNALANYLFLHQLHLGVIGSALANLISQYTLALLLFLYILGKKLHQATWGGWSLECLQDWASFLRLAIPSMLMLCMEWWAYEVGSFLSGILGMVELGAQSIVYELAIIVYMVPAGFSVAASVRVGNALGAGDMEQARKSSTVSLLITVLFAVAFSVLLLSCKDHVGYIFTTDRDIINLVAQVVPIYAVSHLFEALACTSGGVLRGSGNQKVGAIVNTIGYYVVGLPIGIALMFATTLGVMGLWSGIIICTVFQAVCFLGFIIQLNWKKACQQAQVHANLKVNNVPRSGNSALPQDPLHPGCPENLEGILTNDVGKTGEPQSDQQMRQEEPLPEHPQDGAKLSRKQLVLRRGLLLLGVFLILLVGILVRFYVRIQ

[3] = biological target: T3, human OCT1 (hOCT1) (Homo sapiens, UniProt O15245); experiment: Inhibition of OCT1-mediated uptake of the cocktail substrates in HEK293 cells overexpressing human OCT1; settings: human OCT1, mean ± SD
T3 sequence (O15245 1-554): T1 sequence (O15245 1-554)
Protocol: (§3) The kinetic transport parameters KM and vmax as well as the half-maximal inhibitory concentration (IC50) were calculated using GraphPad Prism version 8.0.2 (GraphPad Software, Inc). KM and vmax were calculated using nonlinear regression to the Michaelis-Menten equation.

[4] = Pharmacokinetic parameters used for estimating the potential for DDIs; assay type: in vivo, human; settings: human; for k el: po
Protocol: Ka was calculated manually based on available pharmacokinetic parameters.

[5] = system: OCT1; settings: ref Tzvetkov et al, 2018 (fenoterol); Matthaei et al, 2016 (sumatriptan); cited from earlier work
[6] = biological target: T1, OCT1; experiment: Uptake of the cocktail by HEK293 cells overexpressing human OCT1; settings: cocktail
Protocol: (§1) Significance was calculated using Mann–Whitney U test. n = 5–8 independent experiments.

[7] = biological target: T3, human OCT1 (hOCT1)
Protocol: as §3

[8] = system: mOct1; design: method as in ref column References of Table 2 (Morse et al, 2020; Jensen et al, 2020; Meyer et al, 2022); settings: literature values; References of Table 2 (Morse et al, 2020; Jensen et al, 2020; Meyer et al, 2022); cited from earlier work
[9] = biological target: human MATE2K (hMATE2K) (Homo sapiens, UniProt Q86VL8); experiment: Uptake of the extended cocktail by HEK293 cells overexpressing hMATE2K; assay type: in vitro ADME; settings: Fig. 6, uptake 1 minute after NH4Cl preincubation
[10] = cited from earlier work; for cmax = Imax: dose and route as in Supplemental Table 4, ref Hardman, 2018, fenoterol Tzvetkov et al; for cmax = Imax / fraction unbound: ipratropium Zhang et al, 2023; for fraction unbound: fraction unbound in plasma, ref Hardman, 2018, Lombardo et al (2018), fenoterol Tzvetkov et al; for tmax: p.o., ref Hardman, 2018
[11] = biological target: T4, mouse OCT1 (Mus musculus, UniProt O08966); experiment: Uptake of the cocktail by HEK293 cells overexpressing mouse Oct1
T4 sequence (O08966 1-556): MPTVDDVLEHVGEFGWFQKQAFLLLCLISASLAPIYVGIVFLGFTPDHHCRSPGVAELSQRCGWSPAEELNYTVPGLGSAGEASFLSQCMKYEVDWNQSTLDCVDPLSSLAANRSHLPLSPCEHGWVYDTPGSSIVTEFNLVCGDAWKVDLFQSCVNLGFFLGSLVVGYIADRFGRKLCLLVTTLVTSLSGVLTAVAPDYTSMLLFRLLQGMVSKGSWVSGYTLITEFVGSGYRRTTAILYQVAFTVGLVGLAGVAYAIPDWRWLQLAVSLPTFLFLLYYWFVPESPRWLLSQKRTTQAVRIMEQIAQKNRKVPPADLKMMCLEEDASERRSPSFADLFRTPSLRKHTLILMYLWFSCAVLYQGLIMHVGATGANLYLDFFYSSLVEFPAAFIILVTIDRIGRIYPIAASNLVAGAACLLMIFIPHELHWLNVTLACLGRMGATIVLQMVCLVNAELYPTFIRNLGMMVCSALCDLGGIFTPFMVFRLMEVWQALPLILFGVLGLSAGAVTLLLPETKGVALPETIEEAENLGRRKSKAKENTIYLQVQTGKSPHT
Protocol: as §1

[12] = biological target: T3, human OCT1 (hOCT1); design: expressed in transfected cells; empty vector control pcDNA5; method as in ref column References of Table 2 (Tzvetkov et al, 2018; Morse et al, 2020; Jensen et al, 2020; Meyer et al, 2019, 2022; Wittern et al, 2024 and own unpublished data; Elsby et al, 2017); settings: literature values; References of Table 2 (Tzvetkov et al, 2018; Morse et al, 2020; Jensen et al, 2020; Meyer et al, 2019, 2022; Wittern et al, 2024 and own unpublished data; Elsby et al, 2017); cited from earlier work
[13] = biological target: T1, OCT1; experiment: DDI risk R calculated from IC50 at human OCT1; settings: R=1+fup×Iin,max/IC50, cutoff R ≥ 1.1
Protocol: as §2

[14] = biological target: T3, human OCT1 (hOCT1); experiment: Transport kinetics (KM, vmax) of OCT1-mediated uptake, HEK293 cells overexpressing human OCT1; assay type: in vitro ADME; design: expressed in transfected cells; empty vector control pcDNA5; settings: mean ± SD; for vmax: hOCT1; for Km at 2 min: human, HEK293 cells stably overexpressing human OCT1, pH 7.4, hOCT1
Protocol: To validate the cocktail, we analyzed whether the combination of all substrates in a cocktail affected their individual transport kinetics in terms of KM and vmax. […] To measure the transport kinetics for a single substrate in the cocktail, we increased the concentration of 1 substrate while keeping the concentrations of the other substrates in the cocktail constant. The resulting KM and vmax values were compared with those obtained when each substrate was tested alone (Fig. 2; Supplemental Table 5).

[15] = fold change to the negative control, n = 12

Chain of human MATE2K (hMATE2K) (Q86VL8 1-566 isoform Q86VL8-3): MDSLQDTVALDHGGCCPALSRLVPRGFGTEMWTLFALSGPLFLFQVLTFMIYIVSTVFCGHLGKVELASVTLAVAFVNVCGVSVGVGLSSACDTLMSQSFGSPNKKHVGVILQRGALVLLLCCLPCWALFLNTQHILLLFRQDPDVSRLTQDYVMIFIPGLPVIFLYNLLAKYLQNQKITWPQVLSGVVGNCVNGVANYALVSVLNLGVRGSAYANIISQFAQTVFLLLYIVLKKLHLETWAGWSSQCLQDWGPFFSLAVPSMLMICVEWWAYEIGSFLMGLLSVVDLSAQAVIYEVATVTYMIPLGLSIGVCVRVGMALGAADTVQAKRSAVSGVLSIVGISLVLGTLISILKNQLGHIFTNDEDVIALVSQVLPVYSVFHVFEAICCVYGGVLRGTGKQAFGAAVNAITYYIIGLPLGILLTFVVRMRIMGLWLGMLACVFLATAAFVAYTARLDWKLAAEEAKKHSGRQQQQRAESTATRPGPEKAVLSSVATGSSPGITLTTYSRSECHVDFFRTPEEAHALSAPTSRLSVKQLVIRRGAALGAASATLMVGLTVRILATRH

SMILES | DDI risk R, victim drug trospium [1] | transport by MATE1 [2] | I max, portal, u ([4]; in vivo) [µM] | Imax, portal ([4]; in vivo) [ng/mL] | Km [8] [µM] | transport by MATE2K [9] | cmax = Imax [10] [ng/mL] | fraction unbound [10] | tmax [10] [h] | Km [12] [µM] | DDI risk R, victim drug fenoterol [13] | DDI risk R, victim drug ipratropium [13] | DDI risk R, victim drug methylnaltrexone [13] | DDI risk R, victim drug salbutamol [13] | DDI risk R, victim drug zolmitriptan [13] | further results
CNS(=O)(=O)Cc1ccc2[nH]cc(CCN(C)C)c2c1 [Sumatriptan, sumatriptan] | 1.01 | by far the strongest transport activity | 1.91 | 714.8 | 65.7 | by far the strongest transport activity | 54 | 0.79 | 1.50 | 55.8 | 1.00 | 1.01 | 1.00 | 1.00 | 1.00 | IC50 ([3]; IC50 for inhibition of fenoterol uptake, substrate (victim) fenoterol 0.5 μM in cocktail): 482 ± 42.9 µM; IC50 ([3]; IC50 for inhibition of ipratropium uptake, substrate (victim) ipratropium 0.5 μM in cocktail): 207 µM; IC50 ([3]; IC50 for inhibition of methylnaltrexone uptake, substrate (victim) methylnaltrexone 1 μM in cocktail): 448 ± 40.9 µM; IC50 ([3]; IC50 for inhibition of trospium uptake, substrate (victim) trospium 0.1 μM in cocktail): 270 ± 42.6 µM; IC50 ([3]; IC50 for inhibition of zolmitriptan uptake, substrate (victim) zolmitriptan 0.5 μM in cocktail): 506 ± 36.2 µM; ka ([4]; in vivo): 0.64 h⁻¹; k el ([4]; plasma, read-out: ke (converted)): 0.000192 s⁻¹; increase in systemic exposure in individuals homozygous for OCT1 loss-of-function genetic variants [5]: 2 fold; human OCT1 uptake [fold change to pcDNA5] [6, 15]: 15.3 fold change to pcDNA5; uptake stronger in human than in mouse OCT1 ([6]; ratio human/mouse): 2 fold; IC50 [7]: 604 µM and 628 µM; t1/2 ([10]; ref Hardman, 2018, fenoterol Tzvetkov et al): 1.00 h; mouse Oct1 uptake [fold change to pcDNA5] [11, 15]: 7.8 fold change to pcDNA5; DDI risk R, victim drug metformin [13]: 1.00
CN(C)C(=N)N=C(N)N [Metformin, metformin] | 1.00 | by far the strongest transport activity | 39.48 | 5100 | 491 | by far the strongest transport activity | 1600 | 1 | 1.90 | 3030 | 1.00 | 1.01 | 1.01 | 1.00 | 1.00 | k el ([4]; in vivo): 0.000111 s⁻¹; vmax ([14]; substrate tested alone): 6999 ± 2065 pmol x min^-1 x mg protein^-1; vmax ([14]; substrate tested in cocktail): 5251 ± 1311 pmol x min^-1 x mg protein^-1; Km at 2 min ([14]; substrate tested alone): 1380 ± 512 µM; Km at 2 min ([14]; substrate tested in cocktail): 2000 ± 338 µM; uptake stronger in mouse than in human OCT1 ([11]; ratio mouse/human): 5.1 fold; DDI risk R, victim drug sumatriptan [13]: 1.01
